For seven cell lines, relative viability results are on record in the supplement of paper PMC10307832.

Holding throughout (experiment): relative viability (nuclei count vs DMSO), 5 days (fraction); higher = more cells survive
Compound in the experiment “17-AAG + Tozasertib”: C=CCNC1=C2C[C@@H](C)C[C@H](OC)[C@H](O)[C@@H](C)/C=C(\C)[C@H](OC(N)=O)[C@@H](OC)/C=C\C=C(/C)C(=O)NC(=CC1=O)C2=O [17-AAG] + Cc1cc(Nc2cc(N3CCN(C)CC3)nc(Sc3ccc(NC(=O)C4CC4)cc3)n2)n[nH]1 [Tozasertib] (partner 0.1 µM)
An outline of the steps: (§1)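 For relative viability, nuclei counts in treated wells were divided by those in vehicle wells. Lung cancer cell lines had been pin-tool dosed in 1536-well plates the day after seeding and cultured for 5 days, then fixed and stained in one step (final 0.05% Triton X-100, 1% formaldehyde, 1 ug/ml Hoechst) and imaged at 4×. Doses were one drug alone or a fixed anchor-drug dose plus five library-drug doses (not always all listed) in √10 steps, and values are duplicate-plate medians.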

Compound in the experiment “17-AAG + OSI-027”: C=CCNC1=C2C[C@@H](C)C[C@H](OC)[C@H](O)[C@@H](C)/C=C(\C)[C@H](OC(N)=O)[C@@H](OC)/C=C\C=C(/C)C(=O)NC(=CC1=O)C2=O [17-AAG] + COc1cccc2cc(-c3nc([C@H]4CC[C@H](C(=O)O)CC4)n4ncnc(N)c34)[nH]c12 [OSI-027] (partner 0.5 µM)
In short, it runs like this: as §1

Compound in the experiment “17-AAG + Crizotinib”: C=CCNC1=C2C[C@@H](C)C[C@H](OC)[C@H](O)[C@@H](C)/C=C(\C)[C@H](OC(N)=O)[C@@H](OC)/C=C\C=C(/C)C(=O)NC(=CC1=O)C2=O [17-AAG] + C[C@@H](Oc1cc(-c2cnn(C3CCNCC3)c2)cnc1N)c1c(Cl)ccc(F)c1Cl [Crizotinib] (partner 1 µM)
An outline of the steps:
as §1

Compound in the experiment “17-AAG + Linsitinib”: C=CCNC1=C2C[C@@H](C)C[C@H](OC)[C@H](O)[C@@H](C)/C=C(\C)[C@H](OC(N)=O)[C@@H](OC)/C=C\C=C(/C)C(=O)NC(=CC1=O)C2=O [17-AAG] + C[C@]1(O)C[C@@H](c2nc(-c3ccc4ccc(-c5ccccc5)nc4c3)c3c(N)nccn32)C1 [Linsitinib] (partner 1 µM)
An outline of the steps:
as §1

Regarding SW 900, the relative viability in the experiment with 17-AAG + Tozasertib (first compound 0.00128 µM) turned out to be 0.684; with 17-AAG + Tozasertib (first compound 0.004048 µM), 0.565; with 17-AAG + Tozasertib (first compound 0.0128 µM), 0.262; with 17-AAG + Tozasertib (first compound 0.04048 µM), 0.133; with 17-AAG + Tozasertib (first compound 0.128 µM), 0.113; in the experiment with 17-AAG + OSI-027 (first compound 0.00128 µM) it was 0.476. The relative viability was determined as 0.487 with 17-AAG + OSI-027 (first compound 0.004048 µM), 0.134 with 17-AAG + OSI-027 (first compound 0.0128 µM), 0.0879 with 17-AAG + OSI-027 (first compound 0.04048 µM) and 0.0977 in the experiment with 17-AAG + OSI-027 (first compound 0.128 µM).

Turning to NCI-H1755, the relative viability turned out to be 0.888 with 17-AAG + Crizotinib (first compound 0.00128 µM); 0.841 in the experiment with 17-AAG + Crizotinib (first compound 0.004048 µM); 0.84 with 17-AAG + Crizotinib (first compound 0.0128 µM); 0.588 in the experiment with 17-AAG + Crizotinib (first compound 0.04048 µM); 0.209 with 17-AAG + Crizotinib (first compound 0.128 µM); 0.609 in the experiment with 17-AAG + Tozasertib (first compound 0.00128 µM). Besides, the relative viability is 0.477 in the experiment with 17-AAG + Tozasertib (first compound 0.004048 µM); 0.481 in the experiment with 17-AAG + Tozasertib (first compound 0.0128 µM); 0.363 with 17-AAG + Tozasertib (first compound 0.04048 µM); 0.215 with 17-AAG + Tozasertib (first compound 0.128 µM); 0.773 in the experiment with 17-AAG + OSI-027 (first compound 0.00128 µM); 0.69 with 17-AAG + OSI-027 (first compound 0.004048 µM). Further, the relative viability came to 0.602 with 17-AAG + OSI-027 (first compound 0.0128 µM); 0.197 with 17-AAG + OSI-027 (first compound 0.04048 µM); 0.114 with 17-AAG + OSI-027 (first compound 0.128 µM); 1.03 in the experiment with 17-AAG + Linsitinib (first compound 0.00128 µM); 1.01 with 17-AAG + Linsitinib (first compound 0.004048 µM); 0.934 in the experiment with 17-AAG + Linsitinib (first compound 0.0128 µM). Also, the relative viability with 17-AAG + Linsitinib (first compound 0.04048 µM) amounted to 0.825; with 17-AAG + Linsitinib (first compound 0.128 µM), 0.39.

For the cell line NCI-H2228, the relative viability with 17-AAG + Crizotinib (first compound 0.00128 µM) stood at 0.528; with 17-AAG + Crizotinib (first compound 0.004048 µM) it was 0.245; in the experiment with 17-AAG + Crizotinib (first compound 0.0128 µM), 0.176; with 17-AAG + Crizotinib (first compound 0.04048 µM) it was 0.174; in the experiment with 17-AAG + Crizotinib (first compound 0.128 µM), 0.141; in the experiment with 17-AAG + Tozasertib (first compound 0.00128 µM) it was 0.301. The relative viability with 17-AAG + Tozasertib (first compound 0.004048 µM) stood at 0.151; in the experiment with 17-AAG + Tozasertib (first compound 0.0128 µM), 0.105; in the experiment with 17-AAG + Tozasertib (first compound 0.04048 µM), 0.131; with 17-AAG + Tozasertib (first compound 0.128 µM), 0.128; in the experiment with 17-AAG + OSI-027 (first compound 0.00128 µM) it was 0.583; with 17-AAG + OSI-027 (first compound 0.004048 µM), 0.265. Moreover, the relative viability was determined as 0.104 in the experiment with 17-AAG + OSI-027 (first compound 0.0128 µM); 0.0876 with 17-AAG + OSI-027 (first compound 0.04048 µM); 0.0979 in the experiment with 17-AAG + OSI-027 (first compound 0.128 µM); 0.614 with 17-AAG + Linsitinib (first compound 0.00128 µM); 0.264 in the experiment with 17-AAG + Linsitinib (first compound 0.004048 µM); 0.171 with 17-AAG + Linsitinib (first compound 0.0128 µM). Further, the relative viability with 17-AAG + Linsitinib (first compound 0.04048 µM) amounted to 0.15; with 17-AAG + Linsitinib (first compound 0.128 µM), 0.141.

For NCI-H2087, the relative viability with 17-AAG + Crizotinib (first compound 0.00128 µM) is 0.861; in the experiment with 17-AAG + Crizotinib (first compound 0.004048 µM), 0.66; with 17-AAG + Crizotinib (first compound 0.0128 µM) it was 0.321; with 17-AAG + Crizotinib (first compound 0.04048 µM), 0.213; with 17-AAG + Crizotinib (first compound 0.128 µM), 0.148; in the experiment with 17-AAG + Tozasertib (first compound 0.00128 µM) it was 0.306. Also, the relative viability in the experiment with 17-AAG + Tozasertib (first compound 0.004048 µM) amounted to 0.228; with 17-AAG + Tozasertib (first compound 0.0128 µM), 0.208; with 17-AAG + Tozasertib (first compound 0.04048 µM), 0.148; with 17-AAG + Tozasertib (first compound 0.128 µM), 0.1; in the experiment with 17-AAG + OSI-027 (first compound 0.00128 µM), 0.483; with 17-AAG + OSI-027 (first compound 0.004048 µM) it was 0.325. The relative viability with 17-AAG + OSI-027 (first compound 0.0128 µM) was 0.124; with 17-AAG + OSI-027 (first compound 0.04048 µM), 0.15; with 17-AAG + OSI-027 (first compound 0.128 µM), 0.0762; with 17-AAG + Linsitinib (first compound 0.00128 µM), 0.886; with 17-AAG + Linsitinib (first compound 0.004048 µM), 0.797; in the experiment with 17-AAG + Linsitinib (first compound 0.0128 µM), 0.344. The relative viability amounted to 0.248 in the experiment with 17-AAG + Linsitinib (first compound 0.04048 µM) and 0.197 in the experiment with 17-AAG + Linsitinib (first compound 0.128 µM).

Turning to LU99A, the relative viability was 0.588 with 17-AAG + Crizotinib (first compound 0.00128 µM); 0.512 with 17-AAG + Crizotinib (first compound 0.004048 µM); 0.331 in the experiment with 17-AAG + Crizotinib (first compound 0.0128 µM); 0.184 in the experiment with 17-AAG + Crizotinib (first compound 0.04048 µM); 0.134 in the experiment with 17-AAG + Crizotinib (first compound 0.128 µM); 0.288 with 17-AAG + Tozasertib (first compound 0.00128 µM). Besides, the relative viability with 17-AAG + Tozasertib (first compound 0.004048 µM) turned out to be 0.345; with 17-AAG + Tozasertib (first compound 0.0128 µM) it was 0.399; with 17-AAG + Tozasertib (first compound 0.04048 µM), 0.276; in the experiment with 17-AAG + Tozasertib (first compound 0.128 µM), 0.132; in the experiment with 17-AAG + OSI-027 (first compound 0.00128 µM) it was 0.333; in the experiment with 17-AAG + OSI-027 (first compound 0.004048 µM), 0.332. Further, the relative viability came out at 0.282 with 17-AAG + OSI-027 (first compound 0.0128 µM); 0.217 with 17-AAG + OSI-027 (first compound 0.04048 µM); 0.141 in the experiment with 17-AAG + OSI-027 (first compound 0.128 µM); 0.484 with 17-AAG + Linsitinib (first compound 0.00128 µM); 0.671 in the experiment with 17-AAG + Linsitinib (first compound 0.004048 µM); 0.449 with 17-AAG + Linsitinib (first compound 0.0128 µM). Further, the relative viability with 17-AAG + Linsitinib (first compound 0.04048 µM) is 0.24; with 17-AAG + Linsitinib (first compound 0.128 µM) it was 0.174.

Regarding NCI-H1355, the relative viability with 17-AAG + Crizotinib (first compound 0.00128 µM) amounted to 1.03; in the experiment with 17-AAG + Crizotinib (first compound 0.004048 µM) it was 1.1; in the experiment with 17-AAG + Crizotinib (first compound 0.0128 µM) it was 1.1; with 17-AAG + Crizotinib (first compound 0.04048 µM), 0.93; in the experiment with 17-AAG + Crizotinib (first compound 0.128 µM), 0.287; with 17-AAG + Tozasertib (first compound 0.00128 µM) it was 0.554. Moreover, the relative viability with 17-AAG + Tozasertib (first compound 0.004048 µM) was determined as 0.583; with 17-AAG + Tozasertib (first compound 0.0128 µM) it was 0.543; with 17-AAG + Tozasertib (first compound 0.04048 µM), 0.555; in the experiment with 17-AAG + Tozasertib (first compound 0.128 µM) it was 0.167; in the experiment with 17-AAG + OSI-027 (first compound 0.00128 µM), 0.44; in the experiment with 17-AAG + OSI-027 (first compound 0.004048 µM), 0.467. The relative viability with 17-AAG + OSI-027 (first compound 0.0128 µM) was 0.272; with 17-AAG + OSI-027 (first compound 0.04048 µM), 0.185; with 17-AAG + OSI-027 (first compound 0.128 µM), 0.166; with 17-AAG + Linsitinib (first compound 0.00128 µM) it was 0.946; in the experiment with 17-AAG + Linsitinib (first compound 0.004048 µM), 0.747; in the experiment with 17-AAG + Linsitinib (first compound 0.0128 µM), 0.776. Moreover, the relative viability with 17-AAG + Linsitinib (first compound 0.04048 µM) is 0.725; in the experiment with 17-AAG + Linsitinib (first compound 0.128 µM) it was 0.286.

On to NCI-H596, for which the relative viability amounted to 0.95 with 17-AAG + Crizotinib (first compound 0.00128 µM); 0.834 with 17-AAG + Crizotinib (first compound 0.004048 µM); 1.03 with 17-AAG + Crizotinib (first compound 0.0128 µM); 0.986 in the experiment with 17-AAG + Crizotinib (first compound 0.04048 µM); 0.542 in the experiment with 17-AAG + Crizotinib (first compound 0.128 µM); 0.959 with 17-AAG + Tozasertib (first compound 0.00128 µM). In addition, the relative viability in the experiment with 17-AAG + Tozasertib (first compound 0.004048 µM) is 0.832; with 17-AAG + Tozasertib (first compound 0.0128 µM), 1.01; with 17-AAG + Tozasertib (first compound 0.04048 µM), 0.443; in the experiment with 17-AAG + Tozasertib (first compound 0.128 µM) it was 0.258; with 17-AAG + OSI-027 (first compound 0.00128 µM) it was 0.742; in the experiment with 17-AAG + OSI-027 (first compound 0.004048 µM), 0.713. In addition, the relative viability worked out at 0.854 with 17-AAG + OSI-027 (first compound 0.0128 µM); 0.519 with 17-AAG + OSI-027 (first compound 0.04048 µM); 0.274 with 17-AAG + OSI-027 (first compound 0.128 µM); 1.12 in the experiment with 17-AAG + Linsitinib (first compound 0.00128 µM); 0.93 with 17-AAG + Linsitinib (first compound 0.004048 µM); 0.943 with 17-AAG + Linsitinib (first compound 0.0128 µM). Also, the relative viability came to 0.82 with 17-AAG + Linsitinib (first compound 0.04048 µM) and 0.783 in the experiment with 17-AAG + Linsitinib (first compound 0.128 µM).
